Reference: patent US4434159A, “Pharmaceutical composition for intrarectal administration, and suppository prepared therefrom” (Teijin Limited, priority 1980, dated 1984)

Columns and labels:
serum calcium level [1] = test: Effect of the amount of the absorption aid on the decrease of serum calcium level (calcitonin suppositories, rats); assay type: in vivo; conditions: intrarectal, SD male rats, one hour
Description: (§1) (a) About 14 g of each of the absorption aids shown in Table 1 was added to 186 g of cacao butter, and they were well mixed by a grinder. Salmon caltintonin or [Asu^1,7 ]-eel calcitonin was added gradually and mixed to form a homogeneous composition. The composition was slightly heated to make it flowable, and about 80 mg of it was cast into a suppository container made for rats, and allowed to solidify by cooling to obtain a rat suppository having a diameter of about 3 mm and a length of about 6 mm. The suppository contained 0.7 MRC units of calcitonin.
(§2) The suppository was administered to the rectum of each of […] male rats (body weight about 200 g) and the concentration of calcium in the serum was measured 1, 2, 3, and 5 hours later to examine the absorbabillity of calcitonin from the rectum. The calcium level in the serum was measured by using a calcium level measuring kit of Yatoron Co., and five rats were used for each blood withdrawal. The results are shown in Table 1 as the decrease (%) of the serum calcium level from that before administration of the calcitonin-containing suppository.
(b) Suppositories containing 0.7 MRC unit of [Aus^1.7 ]-eel calcitonin per 80 mg were prepared in the same way as in (a) above by including each of the absorption aids shown in Table 2 in the amounts indicated. Each of the suppositories was intrarectally administered to SD male rats in the same way as in (a) above, and the decrease (%) of the serum calcium level was measured one hour after the administration.

[2] = tested on: mucous membrane of the eyes (cornea, iris, conjunctiva); test: Draize eye irritation test of absorption aids in rabbits
Description: Nothing was applied to the other eye. Thus, irritation of the absorption aid to the mucous membrane of the eyes were examined, and scores were calculated in accordance with the Draize's eye irritation evaluating method [Association of Foods, Drugs and Cosmetics" (1957)].

serum calcium level [3] = test: Decrease of the serum calcium level after administration of calcitonin suppositories to rats; assay type: in vivo; conditions: 0.7 u/kg intramuscularly administered
Description: as §1, §2
Furthermore, [Aus^1,7 ]-eel calcitonin was intramuscularly injected to rats, and the decrease in serum calcium level was also examined.

[4] = absorption aid 0.8% of suppository with 0.7 MRC unit [Aus^1.7]-eel calcitonin per 80 mg
[5] = absorption aid 2.4% of suppository with 0.7 MRC unit [Aus^1.7]-eel calcitonin per 80 mg
[6] = absorption aid 7.0% of suppository with 0.7 MRC unit [Aus^1.7]-eel calcitonin per 80 mg
[7] = absorption aid 15.0% of suppository with 0.7 MRC unit [Aus^1.7]-eel calcitonin per 80 mg
[8] = 2.4 w/v % soln, 1 hours after application
[9] = 2.4 w/v % soln, 3 hours after application
[10] = 2.4 w/v % soln, 6 hours after application
[11] = 2.4 w/v % soln, 24 hours after application
[12] = 2.4 w/v % soln, 48 hours after application
[13] = 2.4 w/v % soln, 72 hours after application
[14] = 2.4 w/v % soln, 96 hours after application
[15] = 2.4 w/v % soln, 168 hours after application
[16] = aqueous solution applied dropwise to rabbit eye, Draize evaluation
[17] = 0.1 w/v % soln, 1 hours after application
[18] = 0.1 w/v % soln, 3 hours after application
[19] = 0.1 w/v % soln, 6 hours after application
[20] = 0.1 w/v % soln, 24 hours after application
[21] = 0.1 w/v % soln, 48 hours after application
[22] = 0.1 w/v % soln, 72 hours after application
[23] = 0.1 w/v % soln, 96 hours after application
[24] = 0.1 w/v % soln, 168 hours after application

Compound: O=C([O-])c1ccccc1O.[Na+] [Sodium salicylate, reference compound]
- Decrease of the serum calcium level (%) (serum calcium level [1]; [4]): 11.4%
- Decrease of the serum calcium level (%) (serum calcium level [1]; [5]): 20.3%
- Decrease of the serum calcium level (%) (serum calcium level [1]; [6]): 29.6%

Compound: N[C@@H](CCC(=O)O)C(=O)O [L-Glutamic acid]
- Decrease of the serum calcium level (%) (serum calcium level [1]; [4]): 11.5%
- Decrease of the serum calcium level (%) (serum calcium level [1]; [5]): 17.2%
- Decrease of the serum calcium level (%) (serum calcium level [1]; [7]): 28.1%
- Primary irritation scores on the eyes: Conjunctiva [2, 8]: 3.3
- Primary irritation scores on the eyes: Cornea [2, 8]: 0
- Primary irritation scores on the eyes: Iris [2, 8]: 0
- Primary irritation scores on the eyes: Total [2, 8]: 3.3
- Primary irritation scores on the eyes: Conjunctiva [2, 9]: 2.0
- Primary irritation scores on the eyes: Cornea [2, 9]: 0
- Primary irritation scores on the eyes: Iris [2, 9]: 0
- Primary irritation scores on the eyes: Total [2, 9]: 2.0
- Primary irritation scores on the eyes: Conjunctiva [2, 10]: 2.0
- Primary irritation scores on the eyes: Cornea [2, 10]: 0
- Primary irritation scores on the eyes: Iris [2, 10]: 0
- Primary irritation scores on the eyes: Total [2, 10]: 2.0
- Primary irritation scores on the eyes: Conjunctiva [2, 11]: 0
- Primary irritation scores on the eyes: Cornea [2, 11]: 0
- Primary irritation scores on the eyes: Iris [2, 11]: 0
- Primary irritation scores on the eyes: Total [2, 11]: 0
- Primary irritation scores on the eyes: Conjunctiva [2, 12]: 0
- Primary irritation scores on the eyes: Cornea [2, 12]: 0
- Primary irritation scores on the eyes: Iris [2, 12]: 0
- Primary irritation scores on the eyes: Total [2, 12]: 0
- Primary irritation scores on the eyes: Conjunctiva [2, 13]: 0
- Primary irritation scores on the eyes: Cornea [2, 13]: 0
- Primary irritation scores on the eyes: Iris [2, 13]: 0
- Primary irritation scores on the eyes: Total [2, 13]: 0
- Primary irritation scores on the eyes: Conjunctiva [2, 14]: 0
- Primary irritation scores on the eyes: Cornea [2, 14]: 0
- Primary irritation scores on the eyes: Iris [2, 14]: 0
- Primary irritation scores on the eyes: Total [2, 14]: 0
- Primary irritation scores on the eyes: Conjunctiva [2, 15]: 0
- Primary irritation scores on the eyes: Cornea [2, 15]: 0
- Primary irritation scores on the eyes: Iris [2, 15]: 0
- Primary irritation scores on the eyes: Total [2, 15]: 0
- irritation to the mucous membrane of the eyes (in words) [2, 16]: almost no irritation

Compound: O=C1O[C@H]([C@@H](O)CO)C(O)=C1O [Ascorbic acid]
- Decrease of the serum calcium level (%) (serum calcium level [1]; [4]): 16.0%
- Decrease of the serum calcium level (%) (serum calcium level [1]; [5]): 22.3%
- Decrease of the serum calcium level (%) (serum calcium level [1]; [6]): 33.1%
- Decrease of the serum calcium level (%) (serum calcium level [1]; [7]): 35.1%
- Primary irritation scores on the eyes: Conjunctiva [2, 8]: 3.3
- Primary irritation scores on the eyes: Cornea [2, 8]: 0
- Primary irritation scores on the eyes: Iris [2, 8]: 0
- Primary irritation scores on the eyes: Total [2, 8]: 3.3
- Primary irritation scores on the eyes: Conjunctiva [2, 9]: 1.3
- Primary irritation scores on the eyes: Cornea [2, 9]: 0
- Primary irritation scores on the eyes: Iris [2, 9]: 0
- Primary irritation scores on the eyes: Total [2, 9]: 1.3
- Primary irritation scores on the eyes: Conjunctiva [2, 10]: 1.3
- Primary irritation scores on the eyes: Cornea [2, 10]: 0
- Primary irritation scores on the eyes: Iris [2, 10]: 0
- Primary irritation scores on the eyes: Total [2, 10]: 1.3
- Primary irritation scores on the eyes: Conjunctiva [2, 11]: 0
- Primary irritation scores on the eyes: Cornea [2, 11]: 0
- Primary irritation scores on the eyes: Iris [2, 11]: 0
- Primary irritation scores on the eyes: Total [2, 11]: 0
- Primary irritation scores on the eyes: Conjunctiva [2, 12]: 0
- Primary irritation scores on the eyes: Cornea [2, 12]: 0
- Primary irritation scores on the eyes: Iris [2, 12]: 0
- Primary irritation scores on the eyes: Total [2, 12]: 0
- Primary irritation scores on the eyes: Conjunctiva [2, 13]: 0
- Primary irritation scores on the eyes: Cornea [2, 13]: 0
- Primary irritation scores on the eyes: Iris [2, 13]: 0
- Primary irritation scores on the eyes: Total [2, 13]: 0
- Primary irritation scores on the eyes: Conjunctiva [2, 14]: 0
- Primary irritation scores on the eyes: Cornea [2, 14]: 0
- Primary irritation scores on the eyes: Iris [2, 14]: 0
- Primary irritation scores on the eyes: Total [2, 14]: 0
- Primary irritation scores on the eyes: Conjunctiva [2, 15]: 0
- Primary irritation scores on the eyes: Cornea [2, 15]: 0
- Primary irritation scores on the eyes: Iris [2, 15]: 0
- Primary irritation scores on the eyes: Total [2, 15]: 0
- irritation to the mucous membrane of the eyes (in words) [2, 16]: almost no irritation

Compound: CCCCCCCCCCCCOS(=O)(=O)[O-].[Na+] [Sodium Laurylsulfate, reference compound]
- Primary irritation scores on the eyes: Conjunctiva [2, 17]: 4.0
- Primary irritation scores on the eyes: Cornea [2, 17]: 0
- Primary irritation scores on the eyes: Iris [2, 17]: 0
- Primary irritation scores on the eyes: Total [2, 17]: 4.0
- Primary irritation scores on the eyes: Conjunctiva [2, 18]: 4.0
- Primary irritation scores on the eyes: Cornea [2, 18]: 0
- Primary irritation scores on the eyes: Iris [2, 18]: 0
- Primary irritation scores on the eyes: Total [2, 18]: 4.0
- Primary irritation scores on the eyes: Conjunctiva [2, 19]: 0
- Primary irritation scores on the eyes: Cornea [2, 19]: 0
- Primary irritation scores on the eyes: Iris [2, 19]: 0
- Primary irritation scores on the eyes: Total [2, 19]: 0
- Primary irritation scores on the eyes: Conjunctiva [2, 20]: 0
- Primary irritation scores on the eyes: Cornea [2, 20]: 0
- Primary irritation scores on the eyes: Iris [2, 20]: 0
- Primary irritation scores on the eyes: Total [2, 20]: 0
- Primary irritation scores on the eyes: Conjunctiva [2, 21]: 0
- Primary irritation scores on the eyes: Cornea [2, 21]: 0
- Primary irritation scores on the eyes: Iris [2, 21]: 0
- Primary irritation scores on the eyes: Total [2, 21]: 0
- Primary irritation scores on the eyes: Conjunctiva [2, 22]: 0
- Primary irritation scores on the eyes: Cornea [2, 22]: 0
- Primary irritation scores on the eyes: Iris [2, 22]: 0
- Primary irritation scores on the eyes: Total [2, 22]: 0
- Primary irritation scores on the eyes: Conjunctiva [2, 23]: 0
- Primary irritation scores on the eyes: Cornea [2, 23]: 0
- Primary irritation scores on the eyes: Iris [2, 23]: 0
- Primary irritation scores on the eyes: Total [2, 23]: 0
- Primary irritation scores on the eyes: Conjunctiva [2, 24]: 0
- Primary irritation scores on the eyes: Cornea [2, 24]: 0
- Primary irritation scores on the eyes: Iris [2, 24]: 0
- Primary irritation scores on the eyes: Total [2, 24]: 0
- Primary irritation scores on the eyes: Conjunctiva [2, 8]: 13.3
- Primary irritation scores on the eyes: Cornea [2, 8]: 0
- Primary irritation scores on the eyes: Iris [2, 8]: 5.0
- Primary irritation scores on the eyes: Total [2, 8]: 18.3
- Primary irritation scores on the eyes: Conjunctiva [2, 9]: 12.7
- Primary irritation scores on the eyes: Cornea [2, 9]: 0
- Primary irritation scores on the eyes: Iris [2, 9]: 0
- Primary irritation scores on the eyes: Total [2, 9]: 12.7
- Primary irritation scores on the eyes: Conjunctiva [2, 10]: 11.3
- Primary irritation scores on the eyes: Cornea [2, 10]: 0
- Primary irritation scores on the eyes: Iris [2, 10]: 0
- Primary irritation scores on the eyes: Total [2, 10]: 11.3
- Primary irritation scores on the eyes: Conjunctiva [2, 11]: 8.0
- Primary irritation scores on the eyes: Cornea [2, 11]: 0
- Primary irritation scores on the eyes: Iris [2, 11]: 0
- Primary irritation scores on the eyes: Total [2, 11]: 8.0
- Primary irritation scores on the eyes: Conjunctiva [2, 12]: 4.0
- Primary irritation scores on the eyes: Cornea [2, 12]: 0
- Primary irritation scores on the eyes: Iris [2, 12]: 0
- Primary irritation scores on the eyes: Total [2, 12]: 4.0
- Primary irritation scores on the eyes: Conjunctiva [2, 13]: 2.7
- Primary irritation scores on the eyes: Cornea [2, 13]: 0
- Primary irritation scores on the eyes: Iris [2, 13]: 0
- Primary irritation scores on the eyes: Total [2, 13]: 2.7
- Primary irritation scores on the eyes: Conjunctiva [2, 14]: 2.0
- Primary irritation scores on the eyes: Cornea [2, 14]: 0
- Primary irritation scores on the eyes: Iris [2, 14]: 0
- Primary irritation scores on the eyes: Total [2, 14]: 2.0
- Primary irritation scores on the eyes: Conjunctiva [2, 15]: 0.7
- Primary irritation scores on the eyes: Cornea [2, 15]: 0
- Primary irritation scores on the eyes: Iris [2, 15]: 0
- Primary irritation scores on the eyes: Total [2, 15]: 0.7
- irritation to the mucous membrane of the eyes (in words) [2, 16]: fairly strong irritation

Compound: O=C1CCC(C(=O)O)N1 (racemic) [DL-Pyroglutamic acid]
- Decrease of the serum calcium level (%) (serum calcium level [1]; [4]): 15.2%
- Decrease of the serum calcium level (%) (serum calcium level [1]; [5]): 20.1%
- Decrease of the serum calcium level (%) (serum calcium level [1]; [6]): 31.0%
- Primary irritation scores on the eyes: Cornea ([2]; rabbit, in vivo): 0
- Primary irritation scores on the eyes: Iris ([2]; rabbit, in vivo): 0
- irritation to the mucous membrane of the eyes (in words) ([2]; rabbit, in vivo): almost no irritation

Compound: CC(=O)Oc1ccccc1C(=O)O [Acetylsalicylic acid, reference compound]
- Primary irritation scores on the eyes: Cornea ([2]; rabbit, in vivo): 0
- Primary irritation scores on the eyes: Iris ([2]; rabbit, in vivo): 0
- irritation to the mucous membrane of the eyes (in words) ([2]; rabbit, in vivo): almost no irritation

Compound: [Asu^1,7 ]-eel calcitonin [[Asu^1.7]eel calcitonin]
- Decrease (%) in serum calcium level from that before administration (serum calcium level [3]; after 1 hour): 26.0%
- Decrease (%) in serum calcium level from that before administration (serum calcium level [3]; after 2 hours): 30.5%
- Decrease (%) in serum calcium level from that before administration (serum calcium level [3]; after 3 hours): 17.5%
- Decrease (%) in serum calcium level from that before administration (serum calcium level [3]; after 5 hours): 2.1%
